This is an account of results in US10934294B2, “Substituted pyrazolo[3,4-d]pyrimidines as PDE9 inhibitors” (Merck Sharp & Dohme Corp., priority 2017, dated 2021).

pKi: −log10 of the molar value. Where two headings read alike, the source gives them in different places.

For orientation: pKi means −log10 of the Ki, conventionally taken in molar units.

The assay addresses Human PDE9 (PDE9A2) (Homo sapiens (Human), UniProt O76083). Nature of the assay: PDE9 IMAP fluorescence polarization (FP) inhibition assay. Type of assay: biochemical. On the technique in general: Polarisation of emitted light reports the rotation of a fluorescent probe.
[1] abbreviates: apparent inhibition constant, FAM-cGMP substrate 50 nM, room temperature, read-out: PDE9 IMAP Ki.
The mark [2] stands for this setting: read-out: PDE9 IMAP Ki, apparent inhibition constant, FAM-cGMP substrate 50 nM, room temperature.

Human PDE9 (PDE9A2), sequence (O76083 other isoform, or with tags, fused parts or gaps): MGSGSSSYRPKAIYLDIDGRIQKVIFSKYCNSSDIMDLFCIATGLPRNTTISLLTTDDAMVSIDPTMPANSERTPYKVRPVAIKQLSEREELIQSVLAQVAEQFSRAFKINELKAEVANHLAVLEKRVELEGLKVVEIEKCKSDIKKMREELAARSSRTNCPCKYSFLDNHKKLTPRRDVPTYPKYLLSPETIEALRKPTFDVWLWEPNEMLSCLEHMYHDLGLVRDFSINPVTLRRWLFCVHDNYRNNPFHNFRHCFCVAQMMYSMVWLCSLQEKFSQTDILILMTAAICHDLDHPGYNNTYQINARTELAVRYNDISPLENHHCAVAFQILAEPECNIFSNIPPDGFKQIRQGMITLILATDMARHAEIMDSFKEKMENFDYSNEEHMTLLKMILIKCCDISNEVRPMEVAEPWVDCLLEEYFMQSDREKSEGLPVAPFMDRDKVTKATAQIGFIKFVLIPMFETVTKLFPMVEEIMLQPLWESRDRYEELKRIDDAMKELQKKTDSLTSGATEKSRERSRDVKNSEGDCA

As to `CC(C1CCOCC1)n1nc(C#N)c2c(=O)[nH]c(C3CCC3c3ncc(F)cn3)nc21` (centres unmarked) [Example 85, 6-(2-(5-fluoropyrimidin-2-yl)cyclobutyl)-4-oxo-1-(1-(tetrahydro-2H-pyran-4-yl)ethyl)-4,5-dihydro-1H-pyrazolo[3,4-d]pyrimidine-3-carbonitrile], the pKi under setting [1] is < 6.22.
For the compound `CC(c1cnn(C)c1)n1nc(C#N)c2c(=O)[nH]c(C3CCC3c3ncccn3)nc21` (single isomer, unassigned) [Example 68, 1-(1-(1-methyl-1H-pyrazol-4-yl)ethyl)-4-oxo-6-(2-(pyrimidin-2-yl)cyclobutyl)-4,5-dihydro-1H-pyrazolo[3,4-d]pyrimidine-3-carbonitrile], the pKi was < 7.17.
Same read-out and setting: to `CC(c1cncc(F)c1)n1nc(C#N)c2c(=O)[nH]c(C3CCC3c3ncccn3)nc21` (single isomer, unassigned) [Example 64, 1-(1-(5-fluoropyridin-3-yl)ethyl)-4-oxo-6-(2-(pyrimidin-2-yl)cyclobutyl)-4,5-dihydro-1H-pyrazolo[3,4-d]pyrimidine-3-carbonitrile] belongs < 7.17.
In the case of `CC(c1cncc(F)c1)n1nc(C#N)c2c(=O)[nH]c(C3CCC3c3ncccn3)nc21` (centres unmarked) [Example 66, 1-(1-(5-fluoropyridin-3-yl)ethyl)-4-oxo-6-(2-(pyrimidin-2-yl)cyclobutyl)-4,5-dihydro-1H-pyrazolo[3,4-d]pyrimidine-3-carbonitrile], the pKi under setting [1] is < 7.17.
In the case of `CC(c1cnn(C)c1)n1nc(C#N)c2c(=O)[nH]c(C3CCC3c3ncccn3)nc21` (single isomer, unassigned) [Example 69, 1-(1-(1-methyl-1H-pyrazol-4-yl)ethyl)-4-oxo-6-(2-(pyrimidin-2-yl)cyclobutyl)-4,5-dihydro-1H-pyrazolo[3,4-d]pyrimidine-3-carbonitrile], the pKi under setting [2] was < 7.17.
As to `CC(c1cncc(F)c1)n1nc(C#N)c2c(=O)[nH]c(C3CCC3c3ncccn3)nc21` (single isomer, unassigned) [Example 65, 1-(1-(5-fluoropyridin-3-yl)ethyl)-4-oxo-6-(2-(pyrimidin-2-yl)cyclobutyl)-4,5-dihydro-1H-pyrazolo[3,4-d]pyrimidine-3-carbonitrile], the pKi under setting [2] was < 7.17.
As to `C[C@H](c1ccc(C(F)(F)F)nc1)n1nc(C#N)c2c(=O)[nH]c([C@@H]3CC[C@H]3c3nc(C(F)F)cc(C(F)F)n3)nc21` [Example 116, 6-((1R,2R)-2-(4,6-bis(difluoromethyl)pyrimidin-2-yl)cyclobutyl)-4-oxo-1-((R)-1-(6-(trifluoromethyl)-pyridin-3-yl)ethyl)-4,5-dihydro-1H-pyrazolo[3,4-d]pyrimidine-3-carbonitrile], the pKi under setting [1] was 8.08.
Regarding `CC(c1cnn(C)c1)n1nc(C#N)c2c(=O)[nH]c(C3CCC3c3ncccn3)nc21` (centres unmarked) [Example 71, 1-(1-(1-methyl-1H-pyrazol-4-yl)ethyl)-4-oxo-6-(2-(pyrimidin-2-yl)cyclobutyl)-4,5-dihydro-1H-pyrazolo[3,4-d]pyrimidine-3-carbonitrile], the pKi was < 7.17.
